The values that follow come from patent US20140193463A1, “PEPTIDE FOR INHIBITING DIPEPTIDYL-PEPTIDASE IV” (CHINA MEDICAL UNIVERSITY, priority 2013, published 2014).

One may read the IC50 as the concentration that gives 50% inhibition.

One assay deals with DPP-IV (Homo sapiens, UniProt P27487). The following applies: previous studies; read-out: IC50 values against DPP-IV; cited from earlier work.
Assay [1] concerns the target T1, Dipeptidyl-peptidase IV (D7052, from porcine kidney) (Sus scrofa, UniProt P22411).
T1 construct: Dipeptidyl-peptidase IV (D7052, from porcine kidney); purchased Sigma-Aldrich D7052; host or cells: porcine kidney (tissue-derived)
The experiment in a line: Determination of DPP-IV-inhibitory activity (Gly-Pro-p-nitroanilide substrate, absorbance 405 nm). As to conditions: synthetic peptides and diprotin A, present example (FIG. 4A-4C). It counts as biochemical. Here is the method:
Atlantic salmon (Salmo salar) fish skins, processing byproducts recovered from fresh skin-off fillets, were supplied by Albion Fisheries Ltd. (Vancouver, BC, Canada). The fish skins were transferred on ice, vacuum packed, and stored at −25° C. until use. Three food-grade proteolytic enzymes were donated by Neova Technologies Inc. (Abbotsford, BC, Canada). Alcalase 2.4 L FG (from Bacillus licheniformis, 2.4 AU/g) and Flavourzyme 1000 L (from Aspergillus oryzae, 1000 LAPU/g) were products from Novo-zymes North America Inc. (Salem, N.C., […]), whereas bromelain (from pineapple stem, 2000 GDU/g) was manufactured by Ultra Bio-Logics Inc. (Montreal, QC, Canada), Dipeptidyl-peptidase IV (D7052, from porcine kidney), Gly-Prop-nitroanilide hydrochloride, trichloroacetic acid (TCA), L-leucine, and diprotin A were purchased from Sigma-Aldrich (St. Louis, Mo.). Trinitrobenzenesulfonic acid (TNBS) was obtained from Fluka Biochemika Oakville ON, Canada). Other chemicals and reagents used were of analytical grade and commercially available,
DPP-IV activity determination was performed in 96-well microplates. In order to measure an increment in absorbance at 405 nm, Gly-Pro-p-nitroanilide is used as a DPP-IV substrate. […] The absorbance of the resulting solution was measured at 405 nm with a microplate reader (iEMS reader MF; Labsystems, Helsinki, Finland).

Residues, ends and D or L forms follow the SMILES beside them.

T1 sequence (P22411 whole entry): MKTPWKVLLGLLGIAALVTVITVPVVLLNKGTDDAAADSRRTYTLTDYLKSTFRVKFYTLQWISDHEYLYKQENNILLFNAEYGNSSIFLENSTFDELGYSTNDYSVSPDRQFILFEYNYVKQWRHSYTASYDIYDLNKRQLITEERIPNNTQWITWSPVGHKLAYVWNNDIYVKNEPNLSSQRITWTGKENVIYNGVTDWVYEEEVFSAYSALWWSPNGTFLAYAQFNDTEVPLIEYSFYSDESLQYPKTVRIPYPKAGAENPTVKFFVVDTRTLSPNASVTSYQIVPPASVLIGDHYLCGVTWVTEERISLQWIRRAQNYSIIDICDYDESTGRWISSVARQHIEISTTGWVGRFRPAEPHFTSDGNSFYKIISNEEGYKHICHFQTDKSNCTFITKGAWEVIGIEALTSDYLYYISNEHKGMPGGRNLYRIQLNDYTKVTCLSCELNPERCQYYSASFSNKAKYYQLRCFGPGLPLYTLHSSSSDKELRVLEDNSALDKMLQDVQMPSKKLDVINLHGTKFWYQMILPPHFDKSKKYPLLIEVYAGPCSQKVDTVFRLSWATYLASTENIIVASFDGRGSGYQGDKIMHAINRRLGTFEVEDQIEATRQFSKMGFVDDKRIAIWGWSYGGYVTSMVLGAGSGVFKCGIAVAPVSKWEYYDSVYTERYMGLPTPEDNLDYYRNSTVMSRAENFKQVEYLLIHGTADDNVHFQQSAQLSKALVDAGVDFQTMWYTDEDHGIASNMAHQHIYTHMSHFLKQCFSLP
Sequence of DPP-IV (P27487 whole entry, species assumed): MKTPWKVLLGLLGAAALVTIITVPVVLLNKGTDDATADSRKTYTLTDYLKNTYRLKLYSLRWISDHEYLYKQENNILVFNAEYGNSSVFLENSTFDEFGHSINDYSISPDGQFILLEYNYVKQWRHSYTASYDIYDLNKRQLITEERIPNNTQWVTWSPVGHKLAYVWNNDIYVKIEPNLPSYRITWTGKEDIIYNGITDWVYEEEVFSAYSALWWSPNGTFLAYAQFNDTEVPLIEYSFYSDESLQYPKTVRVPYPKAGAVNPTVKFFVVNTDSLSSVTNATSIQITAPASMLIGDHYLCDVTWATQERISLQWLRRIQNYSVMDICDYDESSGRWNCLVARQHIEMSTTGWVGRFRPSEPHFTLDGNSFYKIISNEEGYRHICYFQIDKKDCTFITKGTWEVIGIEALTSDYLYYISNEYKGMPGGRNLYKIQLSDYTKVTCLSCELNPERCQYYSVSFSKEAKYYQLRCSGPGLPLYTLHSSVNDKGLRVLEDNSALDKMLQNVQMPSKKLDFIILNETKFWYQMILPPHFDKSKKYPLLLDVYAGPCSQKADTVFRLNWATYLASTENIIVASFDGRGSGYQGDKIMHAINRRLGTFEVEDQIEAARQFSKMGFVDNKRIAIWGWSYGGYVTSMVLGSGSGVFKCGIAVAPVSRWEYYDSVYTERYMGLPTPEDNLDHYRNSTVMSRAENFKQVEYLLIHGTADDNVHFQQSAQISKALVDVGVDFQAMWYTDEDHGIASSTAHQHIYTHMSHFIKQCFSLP

Regarding “Ile-Pro-Ala [peptide prepared from β-lactoglobulin]”, the IC50 at DPP-IV is 49 µM.

For `C[C@H](NC(=O)[C@@H]1CCCN1C(=O)CN)C(=O)N[C@@H](CCC(=O)O)C(=O)O` [Gly-Pro-Ala-Glu] (H-GPAE-OH; N-terminus and C-terminus assumed), the IC50 in assay [1] was 49.6 µM. Turning to “VAGTWY [Val-Ala-Gly-Thr-Trp-Tyr, peptide prepared from β-lactoglobulin]”, the IC50 on DPP-IV is 174 µM. The compound `C[C@H](NC(=O)CNC(=O)[C@@H]1CCCN1C(=O)CN)C(=O)O` [Gly-Pro-Gly-Ala] (H-GPGA-OH; N-terminus and C-terminus assumed) showed an IC50 in assay [1] of 41.9 µM.
